Experimental data published in article PMC6389896 (Communications Biology, 2019).
“And” between values parts separate entries of the source, which are not always exact repeats. Identical values can stand only once. Like-named read-outs stand apart in the source and are kept apart here.

How the values were obtained:
[1] = biological target: human esRAGE (Homo sapiens, UniProt Q15109); assay: Surface plasmon resonance (BIAcore) of oxytocin binding to immobilised esRAGE; details: SPR BIAcore 2000, immobilised recombinant human esRAGE (~5000 RU), 10 mM HEPES pH 7.4, 0.15 M NaCl, 25 °C; read-out: apparent dissociation constant (KD)
Chain of human esRAGE (Q15109 23-347 isoform Q15109-3 limits assumed): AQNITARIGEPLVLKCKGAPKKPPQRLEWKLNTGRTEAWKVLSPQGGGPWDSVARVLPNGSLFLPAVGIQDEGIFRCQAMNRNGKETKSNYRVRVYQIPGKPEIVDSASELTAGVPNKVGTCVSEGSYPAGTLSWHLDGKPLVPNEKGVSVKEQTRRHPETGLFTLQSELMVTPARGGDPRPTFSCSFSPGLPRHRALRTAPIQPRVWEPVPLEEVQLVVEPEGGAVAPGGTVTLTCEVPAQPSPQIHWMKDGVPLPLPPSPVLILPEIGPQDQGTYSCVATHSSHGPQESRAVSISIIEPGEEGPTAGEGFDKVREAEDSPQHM
Description: Isolated human esRAGE was immobilised to BIAcore CM5 research grade sensor chips with the amine coupling kit to a density of ~5000 response units (RU)[27],[32],[41]. […] The sensor chips were regenerated with 10 mM NaOH and 0.5% SDS (W/V).

[2] = tested on: monkey brain capillary endothelial cells; assay: In vitro blood-brain barrier (BBB) model (MBT-24H), transport between luminal and abluminal chambers, control or RAGE shRNA knockdown; details: individual wells, listed as OT; for OT in lower (abluminal, brain) chamber: blood-to-brain, 3 h; for OT in luminal chamber: brain-to-blood, n = 3
Description: EC, monkey brain capillary endothelial cells; Peri, rat brain pericytes; Astro, rat astrocytes. […] The endothelial cells used in the upper chamber in a were treated with RAGE shRNA (knockdown, KD) or control (C or CNT) vectors to assess the effects of RAGE knockdown. […] Values are mean ± SEM
For the in vitro BBB model (MBT-24H, PharmaCo-Cell Co., Nagasaki, Japan), rat brain pericytes (1.5 × 10^4 cells/cm^2) and rat astrocytes (1.5 × 10^4 cells/cm^2) were seeded on the bottom of the collagen-coated polyester membranes of Transwell inserts (Corning Life Sciences, MA, USA). After 16 h the cells firmly adherent, monkey brain vascular endothelial cells (1.5 × 10^5 cells/cm^2) were then seeded on the upper side of the inserts in 24-well culture plates. The in vitro BBB models were established within 4 days of seeding the cells according to the manufacturer’s instructions. Trans-endothelial electrical resistance (TEER), which primarily reflects the flux of sodium ions through the cell layers in the culture conditions, was measured with an epithelial-volt-ohm metre and an Endohm-6 chamber electrodes (World Precision Instruments, Sarasota, FL, USA). The TEERs of the coated, cell-free filters were subtracted from the measured TEER values of the models and shown as Ω cm^2. The apparent permeability constants (Papp) between luminal and abluminal chambers were calculated from the distribution ratios. Endothelial expression was silenced using RAGE shRNA and the pSilencer 3.0-H1 vector (Ambion, Austin, TX, USA)[41]. […]

[3] = Oxytocin in CSF from the cisterna magna after administration, EIA; format: in vivo, mouse; details: for CSF OT: individual animals, listed as OT
Description: CSF was collected according to the protocol for sampling CSF from mice without detectable plasma contamination[77],[78]. Under ketamine anaesthesia (100 mg/kg intraperitoneally), the occipital skull was exposed, and the dura mater of the cisterna magna appeared as a glistening and clear reverse triangle through which the medulla oblongata, a major blood vessel (arteria dorsalis spinalis), and CSF space were visible. A capillary tube was inserted into the cisterna magna through the dura mater, blood-free CSF samples were collected with a 32G needle and immediately frozen with dry ice prior to storage at −80 °C. After CSF collections, blood samples were obtained by cardiac puncture from the mice under continuous ketamine anaesthesia.
(§1) The CSF samples (5 μl) were thawed and diluted 1:20 in assay buffer. CSF samples were assayed without protein extraction due to the low protein concentration in the CSF. […] The inter-assay and intra-assay coefficients of variation were less than 15%.

[4] = Oxytocin in CSF of the third ventricle after subcutaneous injection; format: in vivo, mouse; details: 90 min after sc 30 ng, 0 min = 100, individual animals, listed as OT
Description: In separate experiments we cannulated the third ventricles of WT and Ager^−/− mice and withdrew CSF for oxytocin measurements.
as §1

[5] = Microperfusion of the amygdala, oxytocin in microperfusates; format: in vivo, mouse; details: intranasal 20 ng, 0 min = 100, individual animals, listed as OT
From the text: For microperfusion probe implantation, the male mice were with a subcutaneous injections of ketamine. The heads of anesthetised mice were fixed in a stereotactic frame (Narishige, Tokyo, Japan) and a 1 mm hole was drilled in the skull. The intact dura intact was then punctured to create defined opening of the meninges. Using the stereotactic frame, a healing dummy was slowly inserted into the three brain positions. The probe was fixed to the skull by using two anchor screws and biocompatible dental cement. All surgical procedures were completed within 30 min. A healing dummy was used to provide mechanical stability during the implantation and the healing period of 2 weeks. The microperfusion probe (a 4-mm length of the coaxial tube, 2.5 mm in diameter) consisting of a 20 G fluorinated ethylene propylene guide cannula was replaced before sampling with an inflow/outflow tubing on the day of the experiments. This tubing was connected to two glass Hamilton microsyringes placed in syringe pumps (Eicom, Osaka, Japan). Microperfusate was pumped into the probe at a flow rate of 2 µl/min, and the samples were withdrawn at the same flow rate. Sampling was conducted for 2 h. Both microprobes were perfused without sampling for 60 min before the first 30-min microperfusates from the amygdala, PVN, and prefrontal cortex were collected. The microperfusates were mixed under sterile conditions and consisted of 154 mM NaCl, 2.2 mM CaCl2, 5.6 mM KCl, 2.3 mM NaHCO3, and 0.15% BSA (pH 7.4)[80]. Beginning immediately after the nasal application, 4 additional microperfusates were taken at 30-min intervals. After the termination of the experiments, the brains were removed and snap-frozen to obtain 40-μm cryo-cut stained brain slices later for the histological verification of the perfusion site.

[6] = Oxytocin in CSF after transient brain ischaemia (BCCAO) or sham operation; format: in vivo, mouse; details: individual animals, listed as OT
[7] = cited from earlier work
[8] = design: method as in earlier work; details: i.n. application of 50 μg oxytocin in female pigs; ref 18 (Rault et al.); cited from earlier work
[9] = human or primate CSF, mammalian hippocampus and amygdala; cited from earlier work

CC[C@H](C)[C@@H]1NC(=O)[C@H](Cc2ccc(O)cc2)NC(=O)[C@@H](N)CSSC[C@@H](C(=O)N2CCC[C@H]2C(=O)N[C@@H](CC(C)C)C(=O)NCC(N)=O)NC(=O)[C@H](CC(N)=O)NC(=O)[C@H](CCC(N)=O)NC1=O [oxytocin, Oxytocin]
Kd [1]: 0.179 µM | OT in lower (abluminal, brain) chamber ([2]; 1 ng/ml added to luminal chamber, control vector (C)): 10 pg/mL and 13 pg/mL and 13.5 pg/mL and 11.5 pg/mL and 22.2 pg/mL | OT in lower (abluminal, brain) chamber ([2]; 1 ng/ml luminal, RAGE shRNA knockdown (KD)): 5 pg/mL and 4.2 pg/mL and 2 pg/mL and 8 pg/mL | OT in lower (abluminal, brain) chamber ([2]; 10 ng/ml luminal, RAGE KD): 8 pg/mL and 8.5 pg/mL and 9 pg/mL and 5 pg/mL | OT in lower (abluminal, brain) chamber ([2]; 10 ng/ml luminal, control vector (C)): 21 pg/mL and 28 pg/mL and 15.5 pg/mL and 24 pg/mL and 27 pg/mL | OT in luminal chamber ([2]; 1 ng/ml abluminal, RAGE KD): 0.32 pg/mL and 0.34 pg/mL and 0.36 pg/mL | OT in luminal chamber ([2]; 1 ng/ml added to abluminal chamber, control (C)): 0.84 pg/mL and 1.12 pg/mL and 0.62 pg/mL | OT in luminal chamber ([2]; 10 ng/ml abluminal, RAGE KD): 2 pg/mL and 1.68 pg/mL and 0.8 pg/mL | OT in luminal chamber ([2]; 10 ng/ml abluminal, control (C)): 4 pg/mL and 5.2 pg/mL and 5.4 pg/mL | apparent permeability constant (Papp) ([2]; head 1 ng/ml, RAGE KD, calculated from distribution ratios): 1.263 x10^-6 and 1.061 x10^-6 and 0.505 x10^-6 and 2.02 x10^-6 | apparent permeability constant (Papp) ([2]; head 1 ng/ml, control (C), calculated from distribution ratios across chambers): 2.525 x10^-6 and 3.283 x10^-6 and 3.409 x10^-6 and 2.904 x10^-6 | apparent permeability constant (Papp) ([2]; head 10 ng/ml, RAGE KD, calculated from distribution ratios): 0.076 x10^-6 and 0.098 x10^-6 | CSF OT ([3]; KO (Ager-/-) mice, 60 min after sc oxytocin): 1.096% and 1.022% and 1.298% and 0.875% and 0.8155% and 0.9128% and 1.16% and 0.679% and 1.176% and 1.081% and 0.9794% and 0.8625% | CSF OT ([3]; KO+Tg mice, 60 min after sc oxytocin): 1.051% and 1.1275% and 0.9794% and 1.244% and 1.354% and 2.625% | CSF OT ([3]; WT+Tg (endothelial human RAGE) mice, 60 min after sc oxytocin): 1.066% and 1.83% and 1.926% and 1.872% | CSF OT ([3]; female Ager-/- mice, 60 min after sc OT): 110.13% and 105.01% and 103.76% and 85.23% and 99.81% and 68.15% | CSF OT ([3]; female WT mice, 60 min after sc OT): 169.21% and 199.15% and 65.08% and 204.46% and 219.88% and 175.37% and 233.36% and 183.92% and 188.35% | oxytocin concentrations in the CSF of Ager-/- mice after injection ([3]; sc 30 ng/mouse, Ager-/- mice): remained at baseline levels | time of maxima of oxytocin in CSF from the cisterna magna ([3]; sc 30 ng/mouse, WT mice): 1 to 2 h | time of return of CSF oxytocin to baseline ([3]; sc 30 ng/mouse, WT mice): 4 h | OT % in CSF of the 3rd ventricle ([4]; Ager+/+ male mice): 295% and 138% and 171% and 41% and 195% and 116% and 100% and 188% and 206% | OT % in CSF of the 3rd ventricle ([4]; Ager-/- male mice): 137% and 73% and 77% and 133% and 80% and 118% and 115% and 103% | OT % in microperfusates of the amygdala ([5]; Ager-/- mice, 30 min): 116% and 89% and 169% and 98% and 65% and 54% and 55% and 105% and 67% and 87% and 79% | OT % in microperfusates of the amygdala ([5]; Ager-/- mice, 60 min): 66% and 55% and 85% and 123% and 83% and 92% and 78% and 84% and 76% and 112% and 77% and 93% and 79% | OT % in microperfusates of the amygdala ([5]; Ager-/- mice, 90 min): 137% and 158% and 73% and 162% and 90% and 65% and 76% and 99% and 129% and 131% and 83% and 110% and 163% | OT % in microperfusates of the amygdala ([5]; WT mice, 30 min): 211% and 198% and 89% and 141% and 104% and 174% | OT % in microperfusates of the amygdala ([5]; WT mice, 60 min): 190% and 195% and 144% and 170% and 93% and 133% | OT % in microperfusates of the amygdala ([5]; WT mice, 90 min): 204% and 156% and 78% and 216% and 359% and 124% | CSF OT ([6]; Ager-/- BCCAO male mice): 121.746% and 129.498% and 127.909% and 71.8544% and 61.8033% and 79.0857% and 110.296% and 99.9236% and 126.34% | CSF OT ([6]; Ager-/- Sham male mice): 71.8544% and 61.8033% and 67.0976% and 118.777% and 117.319% and 98.6976% | CSF OT ([6]; WT BCCAO male mice): 191.756% and 287.616% and 179.547% and 244.561% and 258.145% | CSF OT ([6]; WT Sham male mice, cisterna magna, after exogenous oxytocin): 155.233% and 188.051% and 122.984% and 133.451% | share of peripherally applied oxytocin that reaches the CNS ([7]; 5 μg, 10 min after subcutaneous or intraperitoneal administration, rats): approximately 0.002% | bioavailability ([7]; LC/MS after administration of 500 μg oxytocin in rats): approximately 2% | share of oxytocin peptide accumulated on the BBB ([7]; intracarotid artery bolus of 125I- or 3H-labelled oxytocin, rats): 1–2% | bioavailability [8]: 0.001% | time of maximal oxytocin concentrations after peripheral administration [9]: 10 to 60 min
